According to patent publication US4072574A, “System for in vitro assay for mutagenicity and/or carcinogenicity of chemicals or other exogenous agents” (priority 1976, dated 1978):

How the values were obtained:
AMV DNA polymerase [1] = assay: Fidelity of in vitro DNA synthesis (error frequency) with AMV DNA polymerase copying synthetic polynucleotide templates; conditions: for Class: Table 1, classes 1-3 not defined
Text: In this invention, the ability of carcinogens to decrease the fidelity of in vitro DNA synthesis will be used to screen for carcinogenic or mutagenic agents. The system uses synthetic polynucleotides of defined composition which may be copied in the test tubes with procaryotic, eucaryotic or viral DNA polymerases. The use of synthetic polynucleotides of defined composition allows the measurement of the simultaneous incorporation of the correct, complementary nucleotide and an incorrect, non-complementary nucleotide. The correct nucleotide is labeled with [α-^32 P] of low specific activity and the incorrect nucleotide is labeled with [^3 H] of high specific activity. Through this double labeled reaction it is possible to determine the simultaneous incorporation of both nucleotides and thus to determine an error frequency. The error frequency may be defined as the ratio of the incorrect/correct nucleotide incorporation. Agents which increase this error frequency may be scored as positive. […] Agents which score positive would be checked using different templates to underscore the positive results. In this system different polymerases will be used as well as different templates. One would expect that most carcinogens would change the fidelity of DNA synthesis with different polymerases as well as with different templates though this need not be the case.
Each assay will consist of a polymerase, a polynucleotide template that only contains one or two nucleotides, a complementary nucleotide and a non-complementary nucleotide as well as magnesium. Both of the nucleotides will be labeled by radioactive precursors and the ratio between the two is to be used for a measure of error frequency in the system. In instances where a template requires two complementary nucleotides, only one will be radioactively labeled.
Reactions (total volume 0.05 ml) which measured complementary nucleotide incorporation contained 50 mM Tris-HCL (pH 8.0), 20 mM KCl, 5 mM dithiothreitol, 5 mM MgCl2, 2μg BSA, […] [α-^32 P] -dTTP (60 dpm/pmole), 1μg poly (A).oligo (dT) (1:1.5 mass ratio), and 0.45 μg of AMV DNA polymerase. For simultaneous quantitation of complementary and non-complementary nucleotide incorporation each reaction was modified to contain 26μM [α-^32 P]dTTP (12 dpm/pmole) and 23μM [^3 H]-dCTP (50,000 dpm/pmole). […] Metals were added directly to the reaction mixture as aqueous solutions of chloride salts. All reactions were incubated for 60 min. at 37° C. Incorporation of radioactive nucleotides into an acid-insoluble and alkali-resistant product was determined by using the precipitation-solubilization procedure as described by Battula and Loeb. All experiments were performed in triplicate and the averages were determined.
In order to determine the effect of different metals on the accuracy of DNA replication, metal cations were added as chloride salts directly to the polymerase reaction. In these experiments, poly (A).oligo (dT) was the template-primer and the simultaneous incorporation of complementary nucleotide, [α-^32 P]-dTMP, and the non-complementery nucleotide, [^3 H]-dCMP, was determined.
The effect of metal salts on the fidelity of DNA synthesis was examined by testing each of the metal salts at a minimum of seven different concentrations.

AMV DNA polymerase [2] = assay: Metal requirements for catalysis by AMV DNA polymerase; assay type: biochemical, avian myeloblastosis virus; conditions: poly (A).oligo (dT)
Protocol: (§1) All known DNA polymerases require either Mg^2+ or Mn^2+ as an added divalent cation for activity. AMV DNA polymerase used Mg^2+ as an added divalent cation and the maximum rate of polymerization with poly (A).oligo (dT) was attained at 5 mM Mg^2+. […] Thymidine monophosphate incorporation with Be^2+ was less than 0.3% of that obtained with 5 mM Mg^2+.

[3] = known status of the compound; cited from earlier work
[4] = species as printed in the value; cited from earlier work
several DNA polymerases = assay type: biochemical; conditions: preliminary results
Protocol: as §1

[5] = test system: sea urchin nuclear DNA polymerase; assay: Fidelity of DNA synthesis with sea urchin nuclear DNA polymerase; assay type: biochemical; conditions: template poly (dA).oligo (dT)
Text: It is one of 15 carcinogens officially listed by the U.S. government as possibly being carcinogenic in humans.

[6] = 2 mM added cation + Mg^2+ 5 mM, poly (A).oligo (dT)
[7] = 5 mM added cation + Mg^2+ 5 mM, poly (A).oligo (dT)
[8] = 10 mM added cation + Mg^2+ 5 mM, poly (A).oligo (dT)
[9] = Beryllium Chloride 1 mM, poly (A) . oligo (dT), non-complementary rGTP
[10] = Beryllium Chloride 1 mM, poly (C) . oligo (dG), non-complementary dATP
[11] = Beryllium Chloride 1 mM, poly d(A-T), non-complementary dCTP
[12] = Beryllium Chloride 2 mM, poly (A) . oligo (dT), non-complementary rGTP
[13] = Beryllium Chloride 2 mM, poly (C) . oligo (dG), non-complementary dATP
[14] = Beryllium Chloride 3 mM, poly d(A-T), non-complementary dCTP
[15] = Beryllium Chloride 4 mM, poly (C) . oligo (dG), non-complementary dATP
[16] = Beryllium Chloride 5 mM, poly (A) . oligo (dT), non-complementary rGTP
[17] = Beryllium Chloride 5 mM, poly (C) . oligo (dG), non-complementary dATP
[18] = Beryllium Chloride 5 mM, poly d(A-T), non-complementary dCTP
[19] = Beryllium Chloride 10 mM, poly (A) . oligo (dT), non-complementary rGTP

SMILES: [Be+2].[Cl-].[Cl-] [BeCl2, beryllium chloride]
- Complementary Nucleotide (pmoles dTMP) (AMV DNA polymerase [1]; [6]): 291 pmol
- Non-Complementary Nucleotide (pmoles dCMP) (AMV DNA polymerase [1]; [6]): 0.372 pmol
- Error Frequency (AMV DNA polymerase [1]; 2 mM added cation + Mg^2+ 5 mM, poly (A).oligo (dT), dCMP/dTMP): 1/782
- Complementary Nucleotide (pmoles dTMP) (AMV DNA polymerase [1]; [7]): 133 pmol
- Non-Complementary Nucleotide (pmoles dCMP) (AMV DNA polymerase [1]; [7]): 0.294 pmol
- Error Frequency (AMV DNA polymerase [1]; 5 mM added cation + Mg^2+ 5 mM, poly (A).oligo (dT), dCMP/dTMP): 1/453
- Complementary Nucleotide (pmoles dTMP) (AMV DNA polymerase [1]; [8]): 8.6 pmol
- Non-Complementary Nucleotide (pmoles dCMP) (AMV DNA polymerase [1]; [8]): 0.114 pmol
- Error Frequency (AMV DNA polymerase [1]; 10 mM added cation + Mg^2+ 5 mM, poly (A).oligo (dT), dCMP/dTMP): 1/75
- Complementary Nucleotide Incorporation (AMV DNA polymerase [1]; [9]): 568 pmol
- Error Frequency (AMV DNA polymerase [1]; [9]): 1/6104
- Non-Complementary Nucleotide Incorporation (AMV DNA polymerase [1]; [9]): 0.093 pmol
- Complementary Nucleotide Incorporation (AMV DNA polymerase [1]; [10]): 181 pmol
- Error Frequency (AMV DNA polymerase [1]; [10]): 1/1649
- Non-Complementary Nucleotide Incorporation (AMV DNA polymerase [1]; [10]): 0.110 pmol
- Complementary Nucleotide Incorporation (AMV DNA polymerase [1]; [11]): 209 pmol
- Error Frequency (AMV DNA polymerase [1]; [11]): 1/1306
- Non-Complementary Nucleotide Incorporation (AMV DNA polymerase [1]; [11]): 0.160 pmol
- Complementary Nucleotide Incorporation (AMV DNA polymerase [1]; [12]): 503 pmol
- Error Frequency (AMV DNA polymerase [1]; [12]): 1/2704
- Non-Complementary Nucleotide Incorporation (AMV DNA polymerase [1]; [12]): 0.186 pmol
- Complementary Nucleotide Incorporation (AMV DNA polymerase [1]; [13]): 81 pmol
- Error Frequency (AMV DNA polymerase [1]; [13]): 1/1025
- Non-Complementary Nucleotide Incorporation (AMV DNA polymerase [1]; [13]): 0.079 pmol
- Complementary Nucleotide Incorporation (AMV DNA polymerase [1]; [14]): 137 pmol
- Error Frequency (AMV DNA polymerase [1]; [14]): 1/979
- Non-Complementary Nucleotide Incorporation (AMV DNA polymerase [1]; [14]): 0.140 pmol
- Complementary Nucleotide Incorporation (AMV DNA polymerase [1]; [15]): 57 pmol
- Error Frequency (AMV DNA polymerase [1]; [15]): 1/919
- Non-Complementary Nucleotide Incorporation (AMV DNA polymerase [1]; [15]): 0.062 pmol
- Complementary Nucleotide Incorporation (AMV DNA polymerase [1]; [16]): 128 pmol
- Error Frequency (AMV DNA polymerase [1]; [16]): 1/487
- Non-Complementary Nucleotide Incorporation (AMV DNA polymerase [1]; [16]): 0.263 pmol
- Complementary Nucleotide Incorporation (AMV DNA polymerase [1]; [17]): 64 pmol
- Error Frequency (AMV DNA polymerase [1]; [17]): 1/831
- Non-Complementary Nucleotide Incorporation (AMV DNA polymerase [1]; [17]): 0.077 pmol
- Complementary Nucleotide Incorporation (AMV DNA polymerase [1]; [18]): 97 pmol
- Error Frequency (AMV DNA polymerase [1]; [18]): 1/689
- Non-Complementary Nucleotide Incorporation (AMV DNA polymerase [1]; [18]): 0.140 pmol
- Complementary Nucleotide Incorporation (AMV DNA polymerase [1]; [19]): 52 pmol
- Error Frequency (AMV DNA polymerase [1]; [19]): 1/149
- Non-Complementary Nucleotide Incorporation (AMV DNA polymerase [1]; [19]): 0.349 pmol
- Class (AMV DNA polymerase [1]; template poly (A).oligo (dT)): 1
- effect on error frequency (in words) (AMV DNA polymerase [1]; poly (A).oligo (dT), dTMP complementary, dCMP non-complementary): error frequency increased
- Metal Concentration which yielded the largest observed change in error rate (AMV DNA polymerase [1]; template poly (A).oligo (dT)): 10 mM
- effect on the fidelity of DNA synthesis (in words) (AMV DNA polymerase [1]; various templates): decreases the fidelity
- Thymidine monophosphate incorporation relative to that obtained with 5 mM Mg^2+ (AMV DNA polymerase [2]; Be^2+ in the absence of Mg^2+, 60 min): less than 0.3%
- ability to substitute for Mg^2+ as added divalent cation (AMV DNA polymerase [2]; absence of Mg^2+, Be^2+ up to 15 mM): did not result in detectable poly (dT) synthesis
- Carcinogen or Mutagen [3]: +
- carcinogenicity in animals [4]: induces pulmonary carcinomas in monkey and osteogenic sarcomas in rabbits

SMILES: [Cl-].[Cl-].[Co+2] [CoCl2]
- Class (AMV DNA polymerase [1]; template poly (C).oligo (dG)): 1
- Metal Concentration which yielded the largest observed change in error rate (AMV DNA polymerase [1]; template poly (C).oligo (dG)): 4 mM
- effect on the fidelity of DNA synthesis (in words) (AMV DNA polymerase [1]; various templates): alter the fidelity
- metal activator function (several DNA polymerases): serve as metal activators with several DNA polymerases
- Carcinogen or Mutagen [3]: +

SMILES: [Cl][Ni][Cl] [NiCl2]
- Class (AMV DNA polymerase [1]; template poly (C).oligo (dG)): 1
- Metal Concentration which yielded the largest observed change in error rate (AMV DNA polymerase [1]; template poly (C).oligo (dG)): 8 mM
- effect on the fidelity of DNA synthesis (in words) (AMV DNA polymerase [1]; various templates): alter the fidelity
- metal activator function (several DNA polymerases): serve as metal activators with several DNA polymerases

SMILES: O=C1CCO1 [β-propiolactone]
- effect on the fidelity of DNA synthesis (in words) (AMV DNA polymerase [1]; template poly (dA).oligo (dT)): decreases the fidelity
- effect on the fidelity of DNA synthesis (in words) [5]: decreases the fidelity
- carcinogenicity in animals [4]: carcinogen in mice, rats and hamsters
